Test results reported in patent US12303594B2, “Antimicrobial and anti-inflammatory compositions” (The Texas A&M University System, priority 2015, dated 2025).
In brackets after ≈: the same amount, converted by molar mass.

Legend:
[1] = Bulk and tapped density, compressibility index and Hausner ratio; assay type: physicochemical
Description: In this modified method, a 10 mL graduated cylinder fitted with a molded adapter substituted the 100 mL graduated cylinder in the tapped density tester. The compressibility index (CI) and Hausner ratio (HR) calculations were performed according to the following formulas: The tapped density (rT) calculations were performed using a tapped density tester (Agilent Technologies, Santa Clara, CA, USA) with a modified method from the USP for a small mass of powder. In this modified method, a 10 mL graduated cylinder fitted with a molded adapter substituted the 100 mL graduated cylinder for the calculations of the bulk density (rB) and the use in the tapped density tester. The compressibility index (CI) and the Hausner ratio (HR) calculations were performed according to the following formulas: […]

[2] = Brunauer-Emmett-Teller specific surface area; assay type: physicochemical; details: for SSA: N = 3
Description: Brunauer-Emmett-Teller: Surface area (SA) was evaluated via a single-point BET method using a Monosorb® surface area analyzer (Quantrachrome Instruments; FL, USA) following 24 hour outgassing with helium at room temperature (RT) before each measurement in triplicate on a known powder mass (m). SSA was calculated using Equation 3: […]
Brunauer-Emmett-Teller (BET) specific surface area (SSA) measurements were taken. Surface area (SA) was evaluated via a single-point BET method using a Monosorb® surface area analyzer (Quantrachrome Instruments; FL, USA) following 24 hour outgassing with helium at room temperature before each measurement in triplicates. Samples masses (m) were at least 50 mg for the jet-milled powders depending on availability and 500 mg for the unprocessed samples. SSA was calculated according to the following formula: […]

[3] = Angle of repose (USP method); assay type: physicochemical; details: N = 3
Description: Angle of repose: Angles of repose were measured in triplicate according to the United States Pharmacopoeia (USP) method. Images of the powder mounds were taken using a digital camera and were analyzed using the ImageJ software (Wayne Rasband, Research Services Branch, National Institute of Mental Health, Bethesda, MD, USA). […]

[4] = Helium pycnometry true density; assay type: physicochemical; details: N = 3
Description: Helium pycnometry: True densities were measured using an MVP-D160-E multipycnometer (Quantrachrome Instruments; FL, USA) equipped with the micro cell and adapter. Measurements were conducted in triplicates. Before pressure measurements, the multipycnometer was purged with helium gas according to the manufacturer's recommendations.
True densities were measured using a MVP-D160-E multipycnometer (Quantrachrome Instruments; FL, USA). For density measurements, the micro cell and the micro cell adapter were used, and samples weighed at least 0.1 g for the jet-milled powders depending on availability and at least 0.6 g for the unprocessed powders.

[5] = Karl-Fischer moisture analysis; assay type: physicochemical; details: N = 3
Description: Karl-Fischer moisture analysis was performed. The moisture content of the unprocessed and jet-milled powders were measured in triplicates using a Photovolt Aqua-test™ 2010a Moisture Analyser (a.k.a. The CSC Aquapal III, CSC Scientific Inc., Fairfax, VA, USA). Powder moisture contents were calculated by subtracting the moisture content in 1 mL of anhydrous methanol (Fisher Scientific, Pittsburgh, PA, USA) from the moisture content reading from 5 mg powder dissolved in 1 mL of anhydrous methanol.

[6] = Particle size distribution by laser light diffraction; assay type: physicochemical
Description: The particle size distribution (PSD) D10, D50, and D90 values for each sample were defined as particle diameters at the 10th, 50th, and 90th percentile and the span value was calculated according to Equation 2: […]
PSD analysis by laser light diffraction: PSDs were determined using a Sympatec Helos equipped with a Cuvette module (System-Partikel-Technik GmbH, Clausthal-Zellerfeld, Germany). Data were analyzed using the Sympatec WINDOX software. For each measurement, per a previously optimized method, about 2 mg of powder was dispersed in 0.5 mL of 0.1% (w/v) sodium dodecyl sulfate in water and the sample was sonicated for 5 min. […] After the reference measurement, 50 μL aliquots of the sonicated suspension were added to the cell to achieve optical concentrations of between 10 to 20% and the total of six measurements were performed on each sample. Formulations immediately following air-jet milling (25IBU10.1, 25IBU10.2) and after 6 months (25IBU10.1**, 25IBU10.2**) stored at RT (IBU10.1), or at −80° C. (IBU10.2) were analyzed.
PSDs were determined using a Sympatec Helos equipped with a Cuvette module (System-Partikel-Technik GmbH, Clausthal-Zellerfeld, Germany). Data were analyzed using the Sympatec WINDOX software. For each measurement per a previously optimized method, about 2 mg of powder was dispersed in 0.5 mL of 0.1% (w/v) SLS in water and the sample was sonicated for 5 minutes. […] After the reference measurement, 50 μL aliquots of the sonicated suspension were added to the cell to achieve optical concentrations of between 10 to 20% and the total of six measurements were performed on each sample. Analyzed samples included: unprocessed IBU and IND as well as the milled samples from different sections of the jet mill including the tube after grinding chamber (bfC), the cyclone (C), the collection vessel adapter (D), the collection bag adapter (E), the collection vessel (G) and the collection bag (H) for each run. The span value was calculated according to Equation 2.
To estimate the overall D10, D50, and D90 values for the combined recovered fractions associated with each run, stacked bar charts were graphed and analyzed to determine the yield normalized cumulative PSDs. Each stacked bar corresponded to a particle size bin and its height corresponded to the volume density distributions' weighted averages by the yield for each segment of the jet mill. The D10, D50, and D90 values for the normalized cumulative PSDs were the particle sizes corresponding to the 10, 50, and 90% area of the stacked bar chart respectively.
Tween 20 and sodium lauryl sulfate (SLS) were purchased from Fisher Scientific (Fisher Scientific, Pittsburgh, PA, USA), and dH2O was used for preparing solutions. […] A reference measurement was done in 0.1% (v/v) Span 85 in light mineral oil. After a reference measurement, aliquots of […] of sonicated suspension were added to achieve optical concentrations from 10 to 20% for a total of six measurements.
Furthermore, D10, D50, and D90 values for each sample were defined as particle diameters at the 10th, 50th, and 90th percentile of the PSD. Span was calculated according to Equation 2. Normalized cumulative PSDs were composed of yield-normalized distributions, where they were depicted as stacked bar charts. D10, D50, and D90 values for normalized cumulative PSDs were calculated by approximating particle sizes associated with 10%, 50%, and 90% area of the stacked bar chart.

[7] = test system: Pseudomonas aeruginosa (strain PA HP3); experiment: Minimum inhibitory concentration (MIC); assay type: cell-based; details: alone
Description: (§1) The final concentrations of aztreonam, ceftazidime and vancomycin were 0.06, 0.13, 0.25, 0.5, 1, 2, 4, 8, 16, 32, 64, and 128 μg/ml. The plates were incubated overnight at 37° C. […] Each triplicate was performed at least twice.

[8] = test system: Pseudomonas aeruginosa (strain PA HP3); experiment: Checkerboard assay with ibuprofen; assay type: cell-based; details: for MIC: Pseudomonas aeruginosa, read-out: MIC (with ibuprofen); for MIC (with ibuprofen): with 50 μg/mL of ibuprofen
[9] = test system: P. aeruginosa strain PA HP3; experiment: Disc diffusion assay; assay type: cell-based, Pseudomonas aeruginosa; details: MH agar with 100 μg/mL ibuprofen vs MH agar control
Description: A method for disc diffusion assay includes the following: The activity of five antibiotics (amikacin, aztreonam, ceftazidime, colistin, and tobramycin) was assessed against three strains of Pseudomonas aeruginosa (PAM57-15, PAO1 and PA HP3) using a disc diffusion assay. A single colony of P. aeruginosa was picked and grown to an optical density at 650 nm (OD650) of 0.4. […] Discs containing known quantities of the five previously mentioned antibiotics were placed on the two types of agar plates and incubated for 18 hours. The diameters of the zones of inhibition were measured and compared between the MH and MH+IBU plates.

PA HP3 = experiment: 24 hour end point colony forming units (CFU) count study; assay type: cell-based, Pseudomonas aeruginosa; details: P<0.0001
Description: A 24 hour end point colony forming units (CFU) count study was performed. […] Increasing concentrations of aztreonam and ceftazidime were loaded horizontally into each well of two separate 96-well plates starting with zero at the top of the plate. […] The plates were set on a platform shaker at 100 rpm in a 37° C. warm room for 24 hours. After the 24-hour incubation, each well was diluted by taking 50 μl culture into 450 μl of MH broth. A 50 μl aliquot of each dilution was plated on blood agar. This serial dilution step was repeated seven times for each well to reach countable numbers of colonies on the blood agar plates.

[10] = test system: methicillin-resistant Staphylococcus aureus (strain MRSA 0646); experiment: Minimum inhibitory concentration (MIC); assay type: cell-based
Description: as §1

[11] = test system: methicillin-resistant Staphylococcus aureus (strain MRSA 0646); experiment: Checkerboard assay with ibuprofen
Description: A method for checkerboard assay includes the following: The bacteria were diluted in the standard MH broth to a concentration of 5×10^5 in 100 μL, which was added to each well of a 96-well plate. Aztreonam, ceftazidime and vancomycin solutions were prepared from 10 mg/mL stocks in MH broth. […] The plates were incubated and read as noted for the MIC assay. Again, each triplicate was performed at least twice.
Interaction are defined as synergistic if the FIC index is <1, additive if the FIC index is =1 and antagonistic if the FIC index is >1.

[12] = collection bag from jet-milled DFNa, cyclone from jet-milled DF
[13] = normalized cumulative particle size distribution of jet-milled powder
[14] = collection bag fraction or stock, Table 8
[15] = fraction used for testing (IBU collection bag, IND cyclone) or unprocessed powder

Row | MIC [7] [µg/mL] | MIC [8] [µg/mL] | MIC (with ibuprofen) [8] | SMILES | CI [1] | HR [1] | ρT (tapped density) [1] [g/mL] | ρβ (bulk density) [1] [g/mL] | SSA [2] [m^2/g] | Angle of Repose [3] [°] | ρ (true density) [4] [g/mL] | Moisture content [5] [%] | D10 [6, 12] [μm] | D90 [6, 12] [μm] | Span [6, 12] | D10 [6, 13] [μm] | D90 [6, 13] [μm] | Span [6, 13] | D10 ([6]; unprocessed) [μm] | D90 ([6]; unprocessed) [μm] | Span ([6]; unprocessed) | also measured
1 |  |  |  | O=C(O)Cc1ccccc1Nc1c(Cl)cccc1Cl [DF, diclofenac] | 46.67 | 1.88 | 0.30 | 0.16 | 1.73 ± 0.18 | 34.5 ± 2.3 | 1.48 ± 0.01 | 0.78 ± 0.18 | 1.31 | 4.73 | 1.31 | 1.16 | 4.48 | 1.41 | 2.00 | 17.34 | 2.20 | 
2 | 4 (≈ 9.19 µM) | 2 | 2 (50) μg/mL | C[C@H]1[C@H](NC(=O)/C(=N\OC(C)(C)C(=O)O)c2csc(N)n2)C(=O)N1S(=O)(=O)O [Aztreonam, aztreonam] |  |  |  |  |  |  |  |  |  |  |  |  |  |  |  |  |  | diameters of the zones of inhibition [9]: significantly increased; CFU counts (PA HP3; 1 μg/mL aztreonam with 50 or 100 μg/mL ibuprofen vs aztreonam alone): decreased significantly
3 | 16 (≈ 29.3 µM) | 4 | 4 (50) μg/mL | CC(C)(O/N=C(\C(=O)N[C@@H]1C(=O)N2C(C(=O)[O-])=C(C[n+]3ccccc3)CS[C@H]12)c1csc(N)n1)C(=O)O [Ceftazidime, ceftazidime] |  |  |  |  |  |  |  |  |  |  |  |  |  |  |  |  |  | diameters of the zones of inhibition [9]: significantly increased; CFU counts (PA HP3; 2 or 4 μg/mL ceftazidime with 50 or 100 μg/mL ibuprofen vs ceftazidime alone): decreased significantly
4 |  |  |  | COc1ccc2c(c1)c(CC(=O)O)c(C)n2C(=O)c1ccc(Cl)cc1 [unprocessed indomethacin, indomethacin] |  |  |  |  |  |  |  |  |  |  |  |  |  |  |  |  |  | Compressibility Index (CI) [1]: 44.7; Hausner Ratio (HR) [1]: 1.81; bulk density [1]: 0.321 g/mL; tap density [1]: 0.580 g/mL; surface area [2]: 0.435±0.039 m^2/g; D50 [6, 14]: 26.3 μm; D90 [6, 14]: 64.8 μm; Span [6, 14]: 2.3; Span [6, 15]: 2.25; median size (d50) [6, 15]: 26.3 μm
5 |  |  |  | O=C(O)Cc1ccccc1Nc1c(Cl)cccc1Cl [DFNa, diclofenac sodium] | 45.24 | 1.83 | 0.69 | 0.38 | 1.37 ± 0.20 | 48.7 ± 5.5 | 1.51 ± 0.00 | 1.88 ± 0.20 | 1.06 | 5.52 | 1.64 | 1.29 | 6.53 | 1.61 | 2.02 | 42.69 | 2.08 | 
6 |  |  |  | CN[C@H](CC(C)C)C(=O)N[C@H]1C(=O)N[C@@H](CC(N)=O)C(=O)N[C@H]2C(=O)N[C@H]3C(=O)N[C@H](C(=O)N[C@H](C(=O)O)c4cc(O)cc(O)c4-c4cc3ccc4O)[C@H](O)c3ccc(c(Cl)c3)Oc3cc2cc(c3O[C@@H]2O[C@H](CO)[C@@H](O)[C@H](O)[C@H]2O[C@H]2C[C@](C)(N)[C@H](O)[C@H](C)O2)Oc2ccc(cc2Cl)[C@H]1O [Vancomycin, vancomycin] |  |  |  |  |  |  |  |  |  |  |  |  |  |  |  |  |  | MIC [10]: 2 µg/mL (≈ 1.38 µM); MIC ([11]; Staphylococcus aureus, MRSA, read-out: MIC (with ibuprofen)): 1 µg/mL; FIC index ([11]; combination with ibuprofen, <1 synergistic): < 1; MIC (with ibuprofen) ([11]; with 50 μg/mL of ibuprofen): 1 (50) μg/mL
